{
  "source": "patent US20230144898A1",
  "about": "“INHIBITOR OF ASPARTIC ACID SYNTHESIS IN TUMOR CELLS, INHIBITOR OF SPHEROID FORMATION OF TUMOR CELLS, INHIBITOR OF TUMOR CELL METASTASIS, ACTIVITY ENHANCER OF GLYCOLYTIC INHIBITOR, AND PHARMACEUTICAL COMPOSITION FOR SUPPRESSING AND/OR PREVENTING TUMOR METASTASIS” (CCI HOLDINGS INC., priority 2020, published 2023)",
  "key": {"[1]": {"system": "ASF4-1 cells (normal human skin-derived fibroblasts)", "assay": "Proliferation inhibition, normal fibroblasts compared with tumor cells (Test Example 1)", "type": "cell-based", "description": "(§1) First, CMeCl cells (canine malignant melanoma cells) were seeded in a six-well plate so as to be 0.5×10^5 cells/mL, and after 24 hours therefrom, each of the above four kinds of compounds (final concentration: 0.01 to 100 µg/mL) was suspended in the medium at a ratio of 0.1% and incubated for 72 hours. 72 hours after the start of culture, the number of viable cells was measured by trypan blue staining. At this time, viable cells (cell viability%) were calculated as the relative number of cells when the number of viable cells in a negative control section (DMSO treatment) was taken as 100%. Then, IC50 was calculated using a GraphPad Prism software system (GraphPad Software Inc.).\nFurthermore, the results of the same test as described above using ASF4-1 cells, which are normal human skin-derived fibroblasts, and A2058 cells, which are human malignant melanoma cells, are shown in FIG. 1C in comparison with the case of using B16F10 cells."}, "[2]": {"assay": "Cell proliferation inhibition assay (Test Example 14)", "type": "cell-based", "settings": "compared with petasin, S-petasin and S-neopetasin", "description": "In this test example, IC50 values in the cell proliferation inhibition assay for petasin, neopetasin, S-petasin and S-neopetasin were measured in addition to the Petasites japonicus extract (whole extract)."}, "[3]": {"system": "CMeCl cells (canine malignant melanoma cells)", "assay": "Proliferation inhibition, CMeC1 cells, trypan blue viable cell count (Test Example 1)", "type": "cell-based", "settings": "for IC50: Cell line: CMeC1, incubated for 72 hours", "description": "Four compounds of petasin, S-petasin, neopetasin and neo-S-petasin were evaluated for the inhibitory effect on proliferation of mouse or canine malignant melanoma cells by the following method.\nB16F10 cells (mouse malignant melanoma cells) were obtained from JCRB Cell Bank (National Institutes of Biomedical Innovation, Health and Nutrition). In addition, CMeCl cells (canine malignant melanoma cells) were obtained from Veterinary Surgery Laboratory, Graduate School of Agricultural and Life Sciences, the University of Tokyo. Furthermore, A2058 cells (human malignant melanoma cells) were obtained from JCRB Cell Bank (National Institutes of Biomedical Innovation, Health and Nutrition). B16F10 cells were cultured in a 37° C. incubator (air/CO2 = 95/5 (v/v)) using Dulbecco’s modified Eagle’s medium (DMEM), CMeCl cells in RPMI (Roswell Park Memorial Institute) medium (RPMI1640), and A2058 cells in E-MEM medium.\nas §1"}, "[4]": {"system": "B16F10 cells (mouse malignant melanoma cells)", "assay": "Proliferation inhibition, B16F10 cells (Test Example 1)", "type": "cell-based", "settings": "B16-F10, read-out: IC50, proliferation inhibitory activity on B16F10 cells"}, "[5]": {"system": "KMeC cells (canine malignant melanoma cells)", "assay": "Western blotting of cancer-related proteins, KMeC cells (Test Example 10)", "type": "cell-based", "settings": "3 µM, 56 hours", "description": "KMeC cells (canine malignant melanoma cells) were obtained from the Veterinary Surgery Laboratory, Graduate School of Agricultural and Life Sciences, the University of Tokyo. KMeC cells were cultured in an incubator (air/CO2 = 95/5 (v/v)) at 37° C. using RPMI1640 medium.\nTo start with, each cell was seeded at 0.5×10^5 cells/mL in a six-well plate, and after 24 hours of seeding, neopetasin (final concentration: 3 µM) was suspended in a medium and incubated for 56 hours. […] thus treated with neopetasin (3 µM) for 56 hours were recovered with a cell scraper. Furthermore, DMSO was administered to the negative control section, and the same experiment was performed.\nNext, the cells were homogenized in ice-cold lysis buffer (10 mM Tris-HCl (pH 7.4), 1% (w/v) NP-40, 0.1% (w/v) deoxycholic acid, 0.1% (w/v) SDS, 150 mM NaCl, 1 mM EDTA, and 1% (w/v) protease inhibitor cocktail (Sigma-Aldrich) and allowed to stand on ice for 20 minutes. The homogenate was centrifuged at 13,000 rpm for 20 minutes (4° C.), and then the supernatant was collected as a sample for Western blotting. The protein content in the sample was measured using a DC protein assay kit (manufactured by Bio-Rad Laboratories, Inc.). A sample (protein amount of 5 µg) was separated by SDS-PAGE using 10.0 or 12.5% (w/v) polyacrylamide gel, and transferred to a PVDF membrane (PerkinElmer Life Science Co., Ltd). […]"}, "[6]": {"system": "mitochondrial respiratory chain Complex I", "assay": "MitoCheck Complex Activity Assay (Test Example 9)", "type": "biochemical", "settings": "II, II/III, IV and V tested", "description": "Specifically, using the MitoCheck Complex Activity Assay Kit (Cayman Chemical Company, Ann Arbor, MI, USA), extent of relative activity of each of Complex I, Complex II, Complex II/III, Complex IV and Complex V constituting the mitochondrial respiratory chain that was reduced by neopetasin treatment was examined. Furthermore, as a negative control section, DMSO was administered to perform the same experiment. In addition, as a positive control section, rotenone (Complex I), TTFA (Complex II), antimycin A (Complexes II/III), KCN (Complex IV), and oligomycin (Complex V) were each administered, and the same experiment was conducted."}, "[7]": {"assay": "Microscopic observation of organ tissue sections of model mice (Test Example 2)", "type": "in vivo", "settings": "heart, normal site of lung, cerebrum, kidney, liver, spleen, 50 mg/kg i.p.", "description": "Furthermore, when the model mouse to which neopetasin or corn oil was administered was dissected in the above, sections were prepared from the tissues of each organ (heart, normal site of lung, cerebrum, kidney, liver, spleen) and were observed using a microscope. […] The results are consistent with specificity of the action of neopetasin on tumor cells in vitro as described above in Test"}},
  "note": "Several values for one entry are separate records, joined by “and”; a condition that tells them apart may be missing. Identical values can stand only once. Entries after “also recorded” stand apart in the source; their conditions may differ. Like-named read-outs stand apart in the source and are kept apart here.",
  "data": [
    {"smiles": "C=C(C)[C@H]1C[C@@]2(C)C(=CC1=O)CC[C@@H](OC(=O)/C(C)=C\\C)[C@@H]2C", "note": "[Neopetasin, neopetasin]", "values": [
      {"measurement": "inhibitory effect on proliferation of / cytotoxicity to normal cells", "setting": "[1]; ASF4-1 cells", "value": "hardly exhibits the inhibitory effect on proliferation of normal cells; also recorded: shows no cytotoxicity"},
      {"measurement": "IC50 for ASF4-1 cells (normal cells) relative to IC50 for tumor cells", "setting": "[1]; versus A2058 cells and B16F10 cells", "value": "≥ 1000", "unit": "fold"},
      {"measurement": "cell proliferation inhibition activity (IC50 comparison)", "setting": "[2]", "value": "superior cell proliferation inhibition activity to the other three compounds"},
      {"measurement": "inhibitory effect on proliferation of CMeCl cells", "setting": "[3]; 72 hours", "value": "showed the strongest activity"},
      {"measurement": "IC50", "setting": "[3]; Canis lupus familiaris, 72 h, read-out: IC50", "value": 990, "unit": "nM"},
      {"measurement": "IC50", "setting": "[3]; Canis lupus familiaris, 72 h, read-out: IC50 (µg/mL)", "value": 0.314, "unit": "µg/mL"},
      {"measurement": "IC50", "setting": "[3]; read-out: IC50", "value": 991, "unit": "nM"},
      {"measurement": "IC50", "setting": "[4]", "value": "493 nM and 0.156 µg/mL"},
      {"measurement": "expression of cancer-related molecules", "setting": "[5]", "value": "inhibit a wide range of cancer-related molecules"},
      {"measurement": "relative activity of mitochondrial respiratory chain complexes", "setting": "[6]", "value": "selectively reduced only the relative activity of the mitochondrial respiratory chain Complex I"},
      {"measurement": "histological and morphological changes / toxicity in organs", "setting": "[7]", "value": "no histological and morphological changes; also recorded: showed little toxicity to the liver, kidney, spleen"}
    ]}
  ]
}
